Reference: patent US20080138326A1, “Method for cancer treatment, carcinogenesis suppression or mitigation of adverse reactions of anticancer agents” (Kaneka Corporation, priority 2006, published 2008)
Marks after values point to notes of the source that are not given here.

How the values were obtained:
[1] = system: Normal human skin fibroblasts (NHDF); test: Suppressive effect on LDL-induced cell proliferation (BrdU incorporation ELISA); type: cell-based; conditions: LDL containing reduced coenzyme Q10 (2.44-78.2 μg/ml) vs LDL control sample = 100%; 48 hours
Procedure: Human LDL (BIODESIGN) and Medium 106S (Kurabo Industries, Ltd.), a basal medium for normal human skin fibroblasts, were mixed to prepare a LDL-containing medium. The reduced coenzyme Q10 obtained in Production Example 1 was dissolved into the LDL-containing medium at 50° C. with sonication. This was followed by membrane filtration, and the filtrate obtained was used as the test sample stock solution.
Likewise, the LDL-containing medium as is (without adding reduced coenzyme Q10) was subjected to membrane filtration and the filtrate obtained was used as the control sample stock solution. The LDL concentrations of the test sample stock solution and the control sample stock solution were same.
The concentration of reduced coenzyme Q10 in the test sample stock solution was measured by high performance liquid chromatography (column: length 25 cm, diameter 4.6 mm, YMC-PACK ODS-A (YMC), mobile phase: methanol-hexane (85:15, v/v), detection wavelength: 290 nm, flow rate: 1.0 mL/min). As a result, the weight percent of reduced coenzyme Q10 based on the total weight of coenzyme Q10 in the test sample stock solution was calculated to be 84.1% by weight, and the concentration of reduced coenzyme Q10 in the test sample stock solution was calculated to be 234.68 μg/ml. […]

[2] = system: Human breast cancer-derived cells (MCF-7); test: Suppressive effect on cell activation in cancer-derived cells (intracellular ATP content); type: cell-based; conditions: 24 hours; for intracellular ATP content compared with control group: 80 μg/ml, Tween 80 control = 100%, P<0.0011
Procedure: The reduced coenzyme Q10 obtained in Production Example 1 and the oxidized coenzyme Q10 used as a raw material in Production Example 1 were respectively dissolved in undiluted Tween 80 (MP Biomedicals) to give test samples.
Human breast cancer-derived cells (MCF-7, supplied by ATCC) were cultured in a Dulbecco's modified MEM medium (GIBCO) supplemented with 200 U of penicillin, […] streptomycin, and 10% fetal bovine serum at 37° C. in the presence of 5% CO2. After becoming confluent, the cells were sown to a 96-well microplate (IWAKI) at 2.0×10^4 cells per well. Twenty-four hours after the sowing, the medium was replaced with a Dulbecco's modified MEM medium containing 0.5% fetal bovine serum, and the above test samples were added to said medium such that the concentrations of Tween 80 were to be […], 0.025 and 0.05% (the concentrations of the reduced coenzyme Q10 or oxidized coenzyme Q10 in the medium were 20, 40 and 80 μg/ml). Tween 80 alone was added to the Dulbecco's modified MEM medium containing 0.5% fetal bovine serum such that the concentrations were to be the same, and the resulting solution was used as a control. Twenty-four hours later, the medium was removed, and the microplate was washed with PBS (GIBCO), after which intracellular ATP contents were determined using an ATP assay kit (Perkin-Elmer) and compared. The results are shown in FIG. 2, where the determined intracellular ATP amount for the control sample is given a value of 100% and the determined intracellular ATP amounts for the test samples were compared to this value.

[3] = system: aberrant crypt foci (ACF) in the rat large intestine; test: Rat colorectal carcinogenesis model (azoxymethane-initiated aberrant crypt foci); type: in vivo; conditions: four weeks; for Number of ACFs, 1 crypt, percent of control group / Number of ACFs, 2 crypts, percent of control group / Number of ACFs, 3 crypts, percent of control group / Number of ACFs, 4 crypts or more, percent of control group / Total ACF number/large intestine specimen, percent of control group / Total ACs number/large intestine specimen, percent of control group: control group = 100%; for Mean ACs number/focus / Number of ACFs formed in the large intestine, 1 crypt / Number of ACFs formed in the large intestine, 2 crypts / Number of ACFs formed in the large intestine, 3 crypts / Number of ACFs formed in the large intestine, 4 crypts or more / Total ACF number/large intestine specimen / Total ACs number/large intestine specimen: mean ± standard deviation
Procedure: To examine the effect of reduced coenzyme Q10 on carcinogenesis, a test was performed using a rat colorectal carcinogenesis model. This test method represents a rodent model of two-stage carcinogenesis, targeting the rat large intestine. Because carcinogenesis research using this test method is widely conducted for screening for cancer prophylactic agents and other purposes, the test results are sufficiently reliable.
Twenty-seven male F344 rats at 6 weeks of age were divided into three groups (9 animals/group) by computer-based randomized block design in a way such that no statistically significant difference would be produced in mean body weight. For initiation treatment for colorectal carcinogenesis, each rat was given azoxymethane (AOM) by subcutaneous administration at a dose of 15 mg/kg body weight once weekly for two weeks.
Starting on the day before administration of AOM, reduced coenzyme Q10 in solution in vehicle (olive oil) at a concentration of 20 or 50 mg/ml was given by gavage at doses of 0 (control group, group 1), 20, and 50 mg/kg (groups 2 and 3) on consecutive days for four weeks. The control group (group 1) received only the vehicle for administering reduced coenzyme Q10.
Four weeks after initial administration of reduced coenzyme Q10, all rats were autopsied, and the large intestine (colon and rectum, excluding the cecum) was extirpated. The large intestine with its ends ligated was fixed with injected 10% neutrally buffered formalin solution, after which the large intestine was incised and applied over filter paper flatly. Subsequently, the large intestine was post-fixed with 10% neutrally buffered formalin solution. After fixation, the large intestine was stained with 0.2% Methylene Blue solution in physiological saline for about 10 minutes, and the mucosal surface of the large intestine was examined using a stereomicroscope, whereby aberrant crypt foci (ACF), a form of precancerous lesion in colorectal cancer, were counted.
ACF was counted and classified by number of crypts present therein. Data were obtained as total ACF number per large intestine (colon and rectum) specimen, total crypt number per large intestine specimen, and mean crypt number per ACF (Table 2).
Furthermore, total ACF number per large intestine specimen was calculated according to the number of crypts in each ACF (Table 3).
For statistical analysis, Bartlett's homogeneity test was performed to compare group 1 and groups 2 and 3. […] In the case of non-homogenous dispersion, Dunnett's multiple comparison test based on a non-parametric approach (joint ranking method) was performed.

[4] = system: Normal human skin fibroblasts (NHDF); test: Promotive effect on cell activation in skin fibroblasts (intracellular ATP content); type: cell-based; conditions: 48 hours; for ATP level: HCO-60 solvent; for intracellular ATP levels compared with solvent control: 0.12 and 0.98 μg/ml
Procedure: The reduced coenzyme Q10 obtained in Production Example 1 and the oxidized coenzyme Q10 used as a raw material in Production Example 1 were respectively dissolved in undiluted HCO-60 (polyoxyethylene hydrogenated castor oil, Nihon Surfactant Kogyo K.K.) to give test samples.
Normal human skin fibroblasts (NHDF, Kurabo Industries) were cultured in a Medium 106S basal medium (Kurabo Industries) supplemented with 2% fetal bovine serum, 10 μg/ml heparin, 1 μg/ml hydrocortisone, 10 ng/ml human recombinant […], and human recombinant basic fibroblast growth factor 3 ng/ml, at 37° C. in the presence of 5% CO2. After becoming confluent, the cells were sown to a 96-well microplate at 2.0×10^3 cells per well. The medium used at the time of cell sowing was a Medium 106S (Kurabo Industries, Ltd.) supplemented with 2% fetal bovine serum, 10 μg/ml heparin, and 1 μg/ml hydrocortisone. After cultivation for 24 hours, the test samples were replaced with the same medium added with the oxidized or reduced coenzyme Q10 such that the concentrations were to be 0.12 and 0.98 μg/ml, and the cells were further cultured for 48 hours. The same amount of HCO-60 alone was added to the medium, and the resulting solution was used as a control. The medium was then removed, and the microplate was washed with PBS (GIBCO), after which intracellular ATP contents were determined using an ATP assay kit (Perkin-Elmer) and compared.
For statistical analysis, a parametric multiple comparison (Tukey type) was performed. In comparison with the solvent-only control group, * indicates a significance level of less than 5%, and ** indicates a significance level of less than 1%. In comparison with oxidized coenzyme Q10, † indicates a significance level of less than 5%.

rats = conditions: 1.2 g/kg/day for 52 consecutive weeks; cited from earlier work

Question: Which results are given for COc1c(O)c(C)c(C/C=C(\C)CC/C=C(\C)CC/C=C(\C)CC/C=C(\C)CC/C=C(\C)CC/C=C(\C)CC/C=C(\C)CC/C=C(\C)CC/C=C(\C)CCC=C(C)C)c(O)c1OC [Reduced coenzyme Q10, reduced coenzyme Q10]?
Answer: elevation of cell division activity (BrdU incorporated in the nucleus) induced by LDL [1]: suppressed; intracellular ATP content, reduced compared with oxidized coenzyme Q10 ([2]; 80 μg/ml each, P<0.05): significantly lower; intracellular ATP content compared with control group [2]: decreased significantly; Number of ACFs, 1 crypt, percent of control group ([3]; 20 mg/kg by gavage): (71)** %; Number of ACFs, 2 crypts, percent of control group ([3]; 20 mg/kg by gavage): (79) %; Number of ACFs, 3 crypts, percent of control group ([3]; 20 mg/kg by gavage): (100) %; Number of ACFs, 4 crypts or more, percent of control group ([3]; 20 mg/kg by gavage): (97) %; Total ACF number/large intestine specimen, percent of control group ([3]; 20 mg/kg by gavage): (80) %; Total ACs number/large intestine specimen, percent of control group ([3]; 20 mg/kg by gavage): (84) %; Mean ACs number/focus ([3]; 20 mg/kg by gavage): 1.77 ± 0.16; Number of ACFs formed in the large intestine, 1 crypt ([3]; 20 mg/kg by gavage): 47 ± 12; Number of ACFs formed in the large intestine, 2 crypts ([3]; 20 mg/kg by gavage): 39 ± 9; Number of ACFs formed in the large intestine, 3 crypts ([3]; 20 mg/kg by gavage): 18 ± 12; Number of ACFs formed in the large intestine, 4 crypts or more ([3]; 20 mg/kg by gavage): 7 ± 6; Total ACF number/large intestine specimen ([3]; 20 mg/kg by gavage): 113 ± 32; Total ACs number/large intestine specimen ([3]; 20 mg/kg by gavage): 214 ± 81; Number of ACFs, 1 crypt, percent of control group ([3]; 50 mg/kg by gavage): (61)*** %; Number of ACFs, 2 crypts, percent of control group ([3]; 50 mg/kg by gavage): (70)** %; Number of ACFs, 3 crypts, percent of control group ([3]; 50 mg/kg by gavage): (80) %; Number of ACFs, 4 crypts or more, percent of control group ([3]; 50 mg/kg by gavage): (78) %; Total ACF number/large intestine specimen, percent of control group ([3]; 50 mg/kg by gavage): (74)* %; Total ACs number/large intestine specimen, percent of control group ([3]; 50 mg/kg by gavage): (71)* %; Mean ACs number/focus ([3]; 50 mg/kg by gavage): 1.76 ± 0.33; Number of ACFs formed in the large intestine, 1 crypt ([3]; 50 mg/kg by gavage): 40 ± 10; Number of ACFs formed in the large intestine, 2 crypts ([3]; 50 mg/kg by gavage): 35 ± 11; Number of ACFs formed in the large intestine, 3 crypts ([3]; 50 mg/kg by gavage): 15 ± 7; Number of ACFs formed in the large intestine, 4 crypts or more ([3]; 50 mg/kg by gavage): 6 ± 4; Total ACF number/large intestine specimen ([3]; 50 mg/kg by gavage): 104 ± 26; Total ACs number/large intestine specimen ([3]; 50 mg/kg by gavage): 181 ± 54; gross condition, mortality, food consumption, and body weight during the treatment period ([3]; 20 and 50 mg/kg by gavage, male F344 rats): no changes associated with administration of the test substance were observed; total ACF number and total crypt number per large intestine specimen compared with the control group ([3]; 20 and 50 mg/kg by gavage, statistically significant in the 50 mg/kg group): decreased; total ACF number for 1-crypt ACF or 2-crypt ACF ([3]; 20 and 50 mg/kg by gavage, vs control group): decreased significantly; ATP level ([4]; 0.12 μg/ml): 277.21 ± 46.02**† nM; ATP level ([4]; 0.98 μg/ml): 267.24 ± 20.72** nM; intracellular ATP levels compared with solvent control [4]: significantly elevated; intracellular ATP levels, reduced compared with oxidized coenzyme Q10 [4]: significantly elevated

Question: With COC1=C(OC)C(=O)C(C/C=C(\C)CC/C=C(\C)CC/C=C(\C)CC/C=C(\C)CC/C=C(\C)CC/C=C(\C)CC/C=C(\C)CC/C=C(\C)CC/C=C(\C)CCC=C(C)C)=C(C)C1=O [Oxidized coenzyme Q10, oxidized coenzyme Q10, reference compound] as the compound, how does the “intracellular ATP content compared with control group” value [2] read?
Answer: Its value is “decreased significantly”.

Question: And the ATP level ([4]; 0.12 μg/ml)?
Answer: The ATP level was 183.23 ± 62.70* nM.

Question: What about the ATP level ([4]; 0.98 μg/ml) of the same compound?
Answer: Its ATP level is 224.84 ± 43.55* nM.

Question: And the “intracellular ATP levels compared with solvent control” value [4]?
Answer: The value was “significantly elevated”.

Question: What about the toxic signs (rats) of the same compound?
Answer: Its toxic signs is “no toxic signs were observed”.
